From article PMC6359137 (2019)

Tested on: AFM1 aptamer (DNA, aptamer) ACTGCTAGAGATTTTCCACAT
Test: strand displacement, Exo III-amplified NMM fluorescence
Details: K+ 75 mM, Mg2+ 10 mM; C-strand (S2) displaced; highest tested 1 ng mL^-1; 37 °C; compared with blank milk

- binding: no
SMILES: C[C@@H]1Cc2c(Cl)cc(C(=O)N[C@@H](Cc3ccccc3)C(=O)O)c(O)c2C(=O)O1
